Test results published in ChEMBL document CHEMBL1221212, “Small-molecule activation of neuronal cell fate” (Nat Chem Biol, 2008).
Active and inactive are the calls of the source. The rule behind the calls is not given here.

Columns and labels:
[1] = tested on: HCN; assay: Induction of rat HCN cell differentiation assessed as induction of neuronal reporter neuroD activity at 20 uM after 24 hrs by luciferase reporter gene assay; format: functional, cell-based
[2] = tested on: HCN; assay: Induction of rat HCN cell differentiation assessed as induction of neuronal reporter neuroD activity by luciferase reporter gene assay; format: functional, cell-based
[3] = tested on: P19CL6; assay: Induction of mouse C57BL/6 P19CL6 cell differentiation assessed as induction of neuronal reporter neuroD activity by luciferase reporter gene assay; format: functional, cell-based
[4] = tested on: HCN; assay: Induction of HDAC5 phosphorylation in rat HCN cells after 24 hrs; format: functional, cell-based
[5] = tested on: HCN; assay: Effect on subcellular distribution of CREB protein in rat HCN cells after 5 days; format: functional, cell-based
[6] = Induction of rat HCN cell differentiation assessed as upregulation of MEF2D expression after 2 to 4 days by protein blotting analysis; format: functional, cell-based
[7] = biological target: T1, Glutamate NMDA receptor (Rattus norvegicus) (UniProt P35439+Q00959+Q00960+Q00961+Q62645+Q8VHN2+Q9R1M7); assay: Induction of NMDA receptor-mediated Ca2+ influx in rat HCN cells at 5 uM by Fura-2 imaging analysis in presence of NMDA receptor antagonist MK801; format: functional, cell-based
[8] = tested on: HCN; assay: Induction of CAMK-mediated MREx3 activity in rat HCN cells by luciferase reporter gene assay in presence of 2.5 uM CAMK inhibitor KN93; format: cell-based
[9] = biological target: T1, Glutamate NMDA receptor (Rattus norvegicus); assay: Induction of NMDA receptor-mediated neuroD gene expression in rat HCN cells at 50 uM after 24 hrs by RT-PCR analysis in presence of NMDA receptor antagonist MK801; format: functional, cell-based
[10] = tested on: HCN; assay: Induction of LIF/BMP2-mediated rat HCN cell differentiation into GFAP-positive astrocytes after 4 days; format: functional, cell-based
[11] = tested on: HCN; assay: Induction of rat HCN cell differentiation assessed as increase in neuroD gene expression at 10 uM after 3 hrs by RT-PCR analysis; format: functional, cell-based
[12] = tested on: HCN; assay: Induction of L-type calcium channel/NMDA receptor-mediated Ca2+ influx in rat HCN cells at 5 uM by Fura-2 imaging analysis; format: cell-based
[13] = tested on: HCN; assay: Inhibition of gliogenesis differentiation in rat HCN cells at 25 uM after 4 days; format: functional, cell-based
[14] = tested on: HCN; assay: Induction of L-type calcium channel/NMDA receptor-mediated Ca2+ influx in rat HCN cells at 5 uM by Fura-2 imaging analysis in presence of multiple of inhibitors; format: cell-based
[15] = tested on: HCN; assay: Induction of neurogenesis in undifferentiated rat HCN cells assessed as MEF2A protein level at 8 to 64 uM after 9 hrs by protein blotting analysis; format: functional, cell-based
[16] = tested on: HCN; assay: Induction of CAMK-mediated MREx3 activity in rat HCN cells by luciferase reporter gene assay in presence of 200 nM PKC inhibitor Go6976; format: cell-based
[17] = tested on: HCN; assay: Induction of CAMK-mediated MREx3 activity in rat HCN cells by luciferase reporter gene assay in presence of 2.5 uM potassium channel inhibitor KN92; format: cell-based
[18] = tested on: HCN; assay: Induction of L-type calcium channel/NMDA receptor-mediated Ca2+ influx in rat HCN cells; format: cell-based
[19] = tested on: HCN; assay: Induction of rat HCN cell differentiation assessed as increase in DCX gene expression after 9 days by RT-PCR analysis; format: functional, cell-based
[20] = tested on: HCN; assay: Effect on subcellular distribution of MEF2C protein in rat HCN cells after 5 days; format: functional, cell-based
[21] = tested on: HCN; assay: Induction of HDAC5 translocation in cytoplasm of rat HCN cells assessed as phosphorylated HDAC5 accumulation; format: functional, cell-based
[22] = tested on: HCN; assay: Induction of L-type calcium channel/NMDA receptor-mediated neuroD gene expression in rat HCN cells at 50 uM after 24 hrs by RT-PCR analysis in presence of multiple inhibitors; format: cell-based
[23] = tested on: P19CL6; assay: Induction of mouse C57BL/6 P19CL6 cell differentiation assessed as induction of neuronal reporter gluR2 expression by luciferase reporter gene assay; format: functional, cell-based
[24] = biological target: T1, Glutamate NMDA receptor (Rattus norvegicus); assay: Induction of NMDA receptor-mediated neuroD gene expression in rat HCN cells at 50 uM after 3 hrs by RT-PCR analysis in presence of NMDA receptor antagonist nifedipine; format: functional, cell-based
[25] = tested on: HCN; assay: Induction of rat HCN cell differentiation into Tuj1 neurons at 20 uM after 4 days in presence of caspase inhibitor Q-VD-Oph; format: functional, cell-based
[26] = biological target: T1, Glutamate NMDA receptor (Rattus norvegicus); assay: Induction of NMDA receptor-mediated Ca2+ influx in rat HCN cells in presence of NMDA receptor antagonist MK801; format: functional, cell-based
[27] = tested on: HCN; assay: Induction of rat HCN cell differentiation assessed as increase in neuroD gene expression after 3 hrs by RT-PCR analysis; format: functional, cell-based
[28] = tested on: HCN; assay: Induction of rat HCN cell differentiation assessed as increase in Tuj1 gene expression after 1 day by RT-PCR analysis; format: functional, cell-based
[29] = organism: Rattus norvegicus; assay: Induction of rat HCN differentiation into Tuj1 neurons at 25 uM after 4 days; format: functional
[30] = tested on: HCN; assay: Induction of rat HCN cell differentiation assessed as induction of induction of MREx3 gene expression by luciferase reporter gene assay; format: functional, cell-based
[31] = Induction of rat HCN cell proliferation at 20 uM after 20 days by BrdU incorporation assay; format: functional
[32] = tested on: HCN; assay: Induction of rat HCN cell differentiation assessed as increase in Tuj1 gene expression after 3 hrs by RT-PCR analysis; format: functional, cell-based
[33] = tested on: HCN; assay: Induction of CAMK2 phosphorylation in rat HCN cells by Western blot analysis in presence of 2.5 uM CAMK inhibitor KN93; format: cell-based
[34] = Induction of rat HCN cell differentiation assessed as upregulation of MEF2C expression after 2 to 4 days by protein blotting analysis; format: functional, cell-based
[35] = tested on: HCN; assay: Induction of LIF/BMP2-mediated rat HCN cell differentiation into Tuj1 neurons after 4 days; format: functional, cell-based
[36] = biological target: T1, Glutamate NMDA receptor (Rattus norvegicus); assay: Induction of NMDA receptor-mediated neuroD gene expression in rat HCN cells at 50 uM after 3 hrs by RT-PCR analysis in presence of NMDA receptor antagonist MK801; format: functional, cell-based
[37] = tested on: HCN; assay: Induction of rat HCN cell differentiation assessed as increase in MAP2AB gene expression after 9 days by RT-PCR analysis; format: functional, cell-based
[38] = tested on: HCN; assay: Induction of L-type calcium channel/NMDA receptor-mediated neuroD gene expression in rat HCN cells at 50 uM after 3 hrs by RT-PCR analysis in presence of multiple inhibitors; format: cell-based
[39] = tested on: HCN; assay: Induction of neurogenesis in undifferentiated rat HCN cells assessed as MEF2C protein level at 8 to 64 uM after 9 hrs by protein blotting analysis; format: functional, cell-based
[40] = tested on: HCN; assay: Inhibition of LIF/BMP2-mediated rat HCN cell differentiation into astrocytes at 25 uM; format: functional, cell-based
[41] = tested on: Neuronal progenitor cell; assay: Induction of mouse progenitor cell differentiation into Tuj1 neurons at 20 uM after 4 days; format: functional, cell-based
[42] = tested on: HCN; assay: Induction of HDAC5 phosphorylation in rat HCN cells after 6 hrs; format: functional, cell-based
[43] = tested on: HCN; assay: Induction of HDAC5 translocation in nucleus of rat HCN cells assessed as GFP-HDAC5 fusion protein accumulation at 20 uM by fluorescence assay; format: functional, cell-based
[44] = tested on: HCN; assay: Induction of HDAC5 translocation in nucleus of rat HCN cells assessed as GFP-HDAC5 S258A S498A mutant fusion protein accumulation at 5 uM by fluorescence assay; format: functional, cell-based
[45] = Cytotoxicity in rat HCN cells at 20 uM after 4 days; format: cell-based; details: 96 h
[46] = biological target: T1, Glutamate NMDA receptor (Rattus norvegicus); assay: Induction of NMDA receptor-mediated neuroD gene expression in rat HCN cells at 50 uM after 24 hrs by RT-PCR analysis in presence of NMDA receptor antagonist nifedipine; format: functional, cell-based
[47] = tested on: HCN; assay: Induction of rat HCN cell differentiation assessed as increase in Tuj1 gene expression after 3 days by RT-PCR analysis; format: functional, cell-based
[48] = tested on: HCN; assay: Induction of rat HCN cell differentiation assessed as increase in NR1 gene expression after 1 day by RT-PCR analysis; format: functional, cell-based
[49] = tested on: HCN; assay: Induction of rat HCN cell differentiation assessed as increase in neuroD gene expression after 3 days by RT-PCR analysis; format: functional, cell-based
[50] = tested on: HCN; assay: Induction of neurogenesis in undifferentiated rat HCN cells assessed as MAP2AB protein level at 8 to 64 uM after 9 hrs by protein blotting analysis; format: functional, cell-based
[51] = tested on: HCN; assay: Induction of rat HCN cell differentiation assessed as increase in GluR2 gene expression after 3 hrs by RT-PCR analysis; format: functional, cell-based
[52] = tested on: Neuronal progenitor cell; assay: Induction of mouse neuronal progenitor cell differentiation at 25 uM after 4 days; format: functional, cell-based
[53] = tested on: HCN; assay: Induction of L-type calcium channel/NMDA receptor-mediated Ca2+ influx in rat HCN cells in presence multiple inhibitors; format: cell-based
[54] = tested on: HCN; assay: Induction of rat HCN cell differentiation assessed as increase in p27Kip1 gene expression after 9 days by RT-PCR analysis; format: functional, cell-based
[55] = tested on: HCN; assay: Induction of rat HCN cell differentiation assessed as increase in NR1 gene expression after 3 hrs by RT-PCR analysis; format: functional, cell-based
[56] = tested on: HCN; assay: Effect on subcellular distribution of MEF2A protein in rat HCN cells after 5 days; format: functional, cell-based
[57] = tested on: HCN; assay: Induction of rat HCN cell differentiation assessed as increase in GluR2 gene expression after 3 days by RT-PCR analysis; format: functional, cell-based
[58] = tested on: HCN; assay: Induction of neurogenesis in undifferentiated rat HCN cells assessed as GlR2/3 protein level at 8 to 64 uM after 9 hrs by protein blotting analysis; format: functional, cell-based
[59] = tested on: Neuronal progenitor cell; assay: Induction of mouse progenitor cell differentiation into Map2ab-positive neurons at 20 uM after 4 days; format: functional, cell-based
[60] = tested on: P19CL6; assay: Induction of C57BL/6 mouse P19CL6 cell differentiation at 50 uM after 4 days; format: functional, cell-based
[61] = tested on: HCN; assay: Induction of rat HCN cell differentiation assessed as increase in GluR2 gene expression after 1 day by RT-PCR analysis; format: functional, cell-based
[62] = tested on: HCN; assay: Induction of rat HCN cell differentiation assessed as increase in neuroD gene expression after 1 day by RT-PCR analysis; format: functional, cell-based
[63] = Induction of rat HCN cell differentiation assessed as upregulation of MEF2A expression after 2 to 4 days by protein blotting analysis; format: functional, cell-based
[64] = tested on: HCN; assay: Induction of rat HCN cell differentiation assessed as increase in NR1 gene expression after 3 days by RT-PCR analysis; format: functional, cell-based
[65] = tested on: HCN; assay: Induction of rat HCN cell differentiation assessed as increase in beta-TUB3 gene expression after 9 days by RT-PCR analysis; format: functional, cell-based
[66] = tested on: HCN; assay: Induction of CAMK-mediated HDAC5 phosphorylation in rat HCN cells by Western blot analysis in presence of 2.5 uM CAMK inhibitor KN93; format: cell-based

O=C(NC1CCC1)c1cc(-c2cccs2)on1
Activity [1]: Active

O=C(NC1CCCC1)c1cc(-c2cccs2)on1
Activity [1]: Active
Activity [2]: Dose-dependent effect

O=C(NC1CCCCC1)c1cc(-c2cccs2)on1
Activity [1]: Active

O=C(NC1CCCC1)c1cc(-c2ccco2)on1
Activity [3]: Dose-dependent effect
Activity [2]: Dose-dependent effect

O=C(NC1CC1)c1cc(-c2cccs2)on1
Activity [4]: Active
Activity [5]: inactive
Activity [6]: Active
Activity [7]: Active
Activity [8]: inactive
Activity [9]: Active
inhibition [10]: Active
Activity [11]: Active
Activity [12]: Active
inhibition [13]: Active
Activity [14]: Active
Activity [15]: inactive
Activity [16]: Active
Activity [17]: Active
Activity [18]: Active
Activity [19]: Active
Activity [20]: inactive
Activity [21]: Active
Activity [22]: Active
Activity [23]: Dose-dependent effect
Activity [24]: Active
Activity [25]: Active
Activity [26]: Active
Activity [27]: Active
Activity [28]: Active
Activity [29]: Active
Activity [30]: Dose-dependent effect
Activity [31]: 40%
Activity [32]: Active
Activity [33]: inactive
Activity [34]: Active
Activity [35]: Active
Activity [36]: Active
Activity [37]: Active
Activity [38]: Active
Activity [39]: inactive
Activity [1]: Active
inhibition [40]: Active
Activity [41]: Active
Activity [42]: Active
Activity [43]: Active
Activity [44]: Active
Activity [45]: 18%
Activity [46]: Active
Activity [47]: Active
Activity [48]: Active
Activity [49]: Active
Activity [50]: Active
Activity [51]: Active
Activity [52]: Active
Activity [53]: Active
Activity [54]: Active
Activity [55]: Active
Activity [56]: inactive
Activity [57]: Active
Activity [58]: Active
Activity [59]: Active
Activity [60]: Active
Activity [61]: Active
Activity [62]: Active
Activity [63]: inactive
Activity [64]: Active
Activity [65]: Active
Activity [2]: Dose-dependent effect
Activity [66]: inactive

Cc1cc(C(=O)Nc2sc3c(c2C#N)CCCC3)no1
Activity [2]: Dose-dependent effect

C=CCNC(=O)c1cc(-c2cccs2)on1
Activity [3]: Dose-dependent effect

CNC(=O)c1cc(-c2cccs2)on1
Activity [1]: Active
